The results in this text go back to the METLIN SMRT retention time set (Domingo-Almenara et al. 2019).

A short description of this series: gradient 5% acetonitrile 3 min, to 50% in 2 min, to 85% in 15 min, held 3 min, 100 µL/min. As to conditions: column: Zorbax Extend-C18 2.1 x 50 mm; eluents: water / acetonitrile, 0.1% formic acid. In outline: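 Data were gathered over 3 months by HPLC coupled to a quadrupole time-of-flight mass spectrometer, operated in positive and negative ionization mode. Mixtures of ~100 pure standards ran on a Zorbax Extend-C18 column (2.1 × 50 mm, 1.8 μm) at 100 μL/min, with water and acetonitrile each containing 0.1% formic acid and dead and dwell volumes of 40 μL and 900 μL. Retention time was read from adduct peaks picked by computer and checked manually.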
The compound `Cc1ccc(-c2noc(CCN3CCN(C)CC3)n2)cc1` came in with an RP-LC retention time of 630 s.
Then `Cc1noc(C)c1S(=O)(=O)N1CCC(N2CC3(CCCCC3)C2c2ccccc2)CC1` (centres undefined), with 790 s.
Regarding `Cc1cc(C)n(-c2cc(N3CCN(c4nc(-c5ccccc5)cs4)CC3)ccc2[N+](=O)[O-])n1`, the RP-LC retention time amounted to 1190 s.
Then `CC(=O)Nc1ccc(NC(=O)c2nn(-c3ccccc3)c3ccccc3c2=O)cc1`, with 714 s.
Then `CCOc1cc(C(=O)N2CCN(c3cc(=O)n(C)c(=O)n3C)CC2)cc(OCC)c1OCC`, with 730 s; and `CC(C)NC(=O)C1CCN(Cc2cc3ccccc3n2Cc2ccccc2)CC1`, with 710 s.
`CCCCN1N=C(C(=O)N2CCC(C)CC2)S(=O)(=O)c2ccc(C)cc21` gave an RP-LC retention time of 1060 s.
Then `CC1CCCN(S(=O)(=O)c2ccc(-n3cnc(C(=O)NC4CC4)c3)nc2)C1` (centres undefined), with 798 s.
The result for `Cc1nc(-c2noc(-c3ccncc3)n2)cn1CC(=O)NCc1cccc(Cl)c1` reads 693 s; that for `COc1cccc(CNC(=O)Nc2cc3c(cc2Oc2ccccc2)n(C)c(=O)n3C)c1`, 840 s.
With `Cc1oc(-c2cccc(Cl)c2)nc1CN1CCN(C(=O)NC2CCCC2)CC1`, the RP-LC retention time is 690 s.
In the case of `Cc1c(Cl)cccc1NC(=O)CN1C(=O)NC2(CCCCC2)C1=O`, the RP-LC retention time is 779 s.
Then `CCOC(=O)CCNC(=O)C1CCCN(c2nccnc2Oc2ccc(C)cc2)C1` (centres undefined), with 884 s.
Regarding `Cn1nc(-c2cccc(NC(=O)C3c4ccccc4Oc4ccccc43)c2)ccc1=O`, the RP-LC retention time is 814 s.
The result for `CN1CCN(c2ccc(-c3ccc(NC(=O)c4cc(Cl)ccc4Cl)cc3)nn2)CC1` reads 646 s; that for `CCOc1ccc(C(=O)N2CCCC2c2nc(-c3ccc(OC)cc3)no2)cc1OCC` (centres undefined), 982 s; that for `CN(C)c1ccc(-c2noc(C3CC(=O)N(c4ccc(F)cc4)C3)n2)cc1` (centres undefined), 994 s.
The result for `CCn1nccc1C(=O)N1CCCC1c1ccc(Cl)cc1` (centres undefined) reads 850 s; that for `CCn1c(-c2cccc(C(=O)NCc3cccs3)c2)nc2cccnc21`, 733 s.
Then `COc1ccc(OC)c(S(=O)(=O)Cc2nc(-c3ccccc3C)no2)c1`, with 990 s.
For `CC(C)CN1CCN(C(=O)CCC2CCCN(c3cc(NC4CC4)ncn3)C2)CC1` (centres undefined), the RP-LC retention time came to 547 s.
Then `CS(=O)(=O)N1CCCN(C(=O)Nc2ccccc2)CC1`, with 649 s; and `Cc1cc(F)ccc1NC(=O)c1sc(-c2cn(C)c3ncccc23)nc1C`, with 899 s.
With `CCS(=O)(=O)NCc1ccc2c(c1)CCN2C(=O)c1ccccc1`, the RP-LC retention time came to 657 s.
Then `Cc1ccc(Sc2nccnc2N2CCCC(C(=O)Nc3ccc(Br)cc3)C2)cc1` (centres undefined), with 1280 s; and `Cc1cc(C(=O)N2CCC(c3noc(-c4ccncc4)n3)C2)nn1C` (centres undefined), with 661 s; and `CCCCCNC(=O)C1CC(=O)N(CCc2c[nH]c3ccc(Cl)cc23)C1` (centres undefined), with 740 s.
The result for `Cc1ccc(NC(=O)C2CCCN(C(=O)C3Sc4ccccc4NC3=O)C2)cc1F` (centres undefined) reads 844 s; that for `CN1CCN(c2nc3cc(C(F)(F)F)ccc3n3cccc23)CC1`, 768 s.
Then `CC(C)(C)c1noc(-c2ccc(=O)n(Cc3ccc(Cl)cc3)n2)n1`, with 1120 s; and `CN1C(=O)C2(CCN(C(=O)c3ccc(F)cc3)C2)c2ccccc21` (centres undefined), with 764 s.
`Cc1cccc(-c2nnc(C)c(N3CCCCC3C)n2)c1` (centres undefined) yielded an RP-LC retention time of 765 s.
The result for `Cc1sc(NC(=O)C2CCCCC2)nc1-c1ccc2c(c1)NC(=O)C(C)O2` (centres undefined) reads 940 s; that for `CCN(CC)C(=O)c1cc2c(s1)CCC(C(=O)NCc1ccc3c(c1)OCO3)C2` (centres undefined), 830 s.
`Cc1oc(-c2ccccc2)nc1Cc1noc(-c2ccncc2)n1` registered an RP-LC retention time of 920 s.
The result for `CC(C)Cc1ccc(S(=O)(=O)N2CCC3(CC2)CCC(O)(CN2CCCC2)CC3)cc1` reads 786 s.
The result for `CCn1ccc2c(cc(C(=O)Nc3cc(C)ccc3C)n2C)c1=O` reads 721 s; that for `CN(CCCNC(=O)c1ccc2c(c1)NC(=O)C1CCCCN21)Cc1ccccc1` (centres undefined), 617 s; that for `COC(=O)c1c(C)[nH]c(C(=O)N2CCCC(C(=O)NCc3ccc(OC)cc3OC)C2)c1C` (centres undefined), 755 s.
`Cc1nc(-c2ccc(-c3noc(COc4ccc(F)cc4)n3)cc2)cs1` gave an RP-LC retention time of 1160 s.
The result for `Cc1ccc(NC(=O)Cn2ccc3sccc3c2=O)cc1F` reads 785 s; that for `Cc1cc(N2CCN(C(=O)Nc3ccc(C)c(Cl)c3)CC2)nc(N2CCCC2)n1`, 747 s; that for `COc1cc(F)ccc1-c1ccnc2nc(-c3cccs3)nn12`, 918 s.
The result for `CCC1Oc2ccc(S(=O)(=O)N3CCC(C(=O)Nc4ccccc4C)CC3)cc2NC1=O` (centres undefined) reads 814 s.
Turning to `CCN(C(=O)Cn1c(C(C)C)nc2c(c1=O)CN(Cc1ccccc1)CC2)c1ccccc1`, the RP-LC retention time worked out at 757 s.
Then `CCC(=O)N1CCc2cc(-c3ccc(C(=O)NC(C)C(=O)N4CCCCC4)cc3)ccc21` (centres undefined), with 846 s; and `Cc1ccc2c(C(=O)NCCN3CCCCC3)cc(NC(=O)C3CCC3)cc2n1`, with 562 s.
`COc1cc(NC(=O)N2CCN(c3ccc(=O)n(-c4ccc(C)c(C)c4)n3)CC2)cc(OC)c1OC`: the RP-LC retention time was 775 s.
Take `Cc1cccc(-c2nnc(-c3ccc(Cl)c(S(=O)(=O)N4CCOCC4)c3)o2)c1`: the RP-LC retention time was determined as 1020 s.
Then `O=C1NC(C(=O)NCc2ccccn2)Cn2cccc21` (centres undefined), with 541 s; and `Cc1cccc(Sc2nccnc2N2CCC(C(=O)NCCC3=CCCCC3)CC2)c1`, with 1220 s; and `O=C(Nc1ccc2c(c1)N(S(=O)(=O)c1ccccc1)CCC2)c1ccc2c(c1)OCO2`, with 834 s.
The compound `O=S(=O)(NCCc1noc(-c2ccccc2)n1)c1ccc2c(c1)OCCO2` showed an RP-LC retention time of 883 s.
Take `Cc1nnc(-c2nnc(NC3CCCCC3)c3ccccc23)o1`: the RP-LC retention time was 688 s.
Regarding `CCC(=O)N1CCc2c(sc3ncnc(NCc4ccccn4)c23)C1`, the RP-LC retention time was 559 s.
Then `COCCN1C(=O)CCC2(CNC(=O)c3sccc3C)CCCC=C12` (centres undefined), with 804 s.
The result for `Fc1ccc(-c2noc(-c3nnn4c3COC(c3ccc(Cl)cc3)C4)n2)cc1` (centres undefined) reads 1250 s; that for `CCOC(=O)c1ccc(NC(=O)CN2N=NC3C(=O)N(c4ccc(F)cc4)C(=O)C32)cc1` (centres undefined), 812 s.
`Cc1ccc(-c2nc(C(=O)N3CCN(c4ccccc4)CC3)cs2)n1C` displayed an RP-LC retention time of 1080 s.
